Results: ChEMBL document CHEMBL4411339, “Design, synthesis and antimycobacterial activity of less lipophilic Q203 derivatives containing alkaline fused ring moieties” (Bioorg Med Chem, 2019)
In brackets after ≈: the same amount, converted by molar mass.

Columns and labels:
[1] = test system: Mycobacterium tuberculosis; test: Antimycobacterial activity against Mycobacterium tuberculosis H37Rv ATCC 27294 after 7 days by microplate alamar blue assay; format: functional; conditions: H37Rv ATCC 27294, 168 h
[2] = Cytotoxicity against African green monkey Vero cells assessed as reduction in cell viability after 72 hrs by MTT assay; format: cell-based; conditions: chlorocebus sabaeus
hERG (KCNH2) = hERG (KCNH2) (Homo sapiens, UniProt Q12809); test: Inhibition of human ERG at 10 uM relative to control
[3] = Aqueous solubility of the compound in pH 2 0.01M HCl incubated under stirred condition for 12 hrs by UV-HPLC analysis; format: physicochemical
[4] = AUC (0 to infinity) in specific pathogen free ICR mouse at 25 mg/kg, po administered as single dose by HPLC analysis; format: ADME, organism-based; parameters: dose 25 mg/kg, time infinity, route oral; conditions: in vivo
[5] = Acute toxicity in specific pathogen free ICR mouse at 500 mg/kg, po administered as single dose measured up to 7 days; format: organism-based; conditions: in vivo, 168 h
[6] = Tmax in specific pathogen free ICR mouse at 25 mg/kg, po administered as single dose by HPLC analysis; format: ADME, organism-based; conditions: in vivo
[7] = Elimination half life in specific pathogen free ICR mouse at 25 mg/kg, po administered as single dose by HPLC analysis; format: ADME, organism-based; conditions: in vivo, read-out: beta t1/2 (converted)
[8] = Cmax in specific pathogen free ICR mouse at 25 mg/kg, po administered as single dose by HPLC analysis; format: ADME, organism-based; parameters: dose 25 mg/kg, route oral; conditions: in vivo

Sequence of hERG (KCNH2) (Q12809 whole entry): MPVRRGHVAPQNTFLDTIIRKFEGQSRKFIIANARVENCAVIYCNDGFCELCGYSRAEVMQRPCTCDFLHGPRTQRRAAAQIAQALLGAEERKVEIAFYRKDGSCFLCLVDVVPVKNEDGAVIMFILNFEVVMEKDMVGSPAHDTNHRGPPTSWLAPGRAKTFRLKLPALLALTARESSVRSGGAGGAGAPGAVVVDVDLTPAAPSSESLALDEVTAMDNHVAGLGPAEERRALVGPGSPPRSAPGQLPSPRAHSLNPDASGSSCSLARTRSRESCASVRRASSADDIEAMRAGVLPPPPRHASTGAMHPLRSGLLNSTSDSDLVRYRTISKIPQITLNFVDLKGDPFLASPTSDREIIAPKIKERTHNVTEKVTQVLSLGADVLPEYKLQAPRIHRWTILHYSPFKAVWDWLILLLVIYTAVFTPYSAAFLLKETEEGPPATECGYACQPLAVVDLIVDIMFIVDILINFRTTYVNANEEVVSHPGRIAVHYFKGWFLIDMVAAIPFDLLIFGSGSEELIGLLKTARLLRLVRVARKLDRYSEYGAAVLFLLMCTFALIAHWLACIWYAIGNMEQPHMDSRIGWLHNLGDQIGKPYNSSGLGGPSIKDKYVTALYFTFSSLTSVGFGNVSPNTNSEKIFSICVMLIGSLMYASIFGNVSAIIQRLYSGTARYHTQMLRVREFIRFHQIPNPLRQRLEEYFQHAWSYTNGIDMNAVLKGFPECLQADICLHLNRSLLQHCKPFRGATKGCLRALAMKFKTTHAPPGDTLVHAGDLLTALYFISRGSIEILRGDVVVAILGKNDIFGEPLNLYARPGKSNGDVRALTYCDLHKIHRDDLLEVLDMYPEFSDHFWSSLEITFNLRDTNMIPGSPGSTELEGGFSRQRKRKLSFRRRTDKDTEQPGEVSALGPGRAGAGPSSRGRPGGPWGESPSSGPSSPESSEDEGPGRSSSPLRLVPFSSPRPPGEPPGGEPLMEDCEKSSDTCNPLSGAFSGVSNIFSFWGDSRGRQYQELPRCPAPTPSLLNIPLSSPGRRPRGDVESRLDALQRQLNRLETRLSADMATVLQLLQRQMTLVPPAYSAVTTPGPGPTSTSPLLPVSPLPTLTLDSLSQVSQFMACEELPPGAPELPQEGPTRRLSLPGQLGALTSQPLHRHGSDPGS

Compound | MIC [1] | CC50 at 72 h [2] | inhibition at 10 µM (hERG (KCNH2)) | solubility at 12 h [3] | AUC(0-inf) [4] | Activity [5] | Tmax [6] | half-life [7] | Cmax [8]
CCc1nc2cc(Cl)ccn2c1C(=O)NCc1ccc2c(c1)CCN(Cc1ccc(Br)cc1)C2 | 0.31 µM (≈ 0.167 µg/mL) |  |  |  |  |  |  |  | 
CCc1nc2ccc(Cl)cn2c1C(=O)NCc1ccc2c(c1)CCN(Cc1ccc(C)cc1)C2 | < 0.035 µM | 51 µg/mL (≈ 108 µM) | 54% |  |  |  |  |  | 
CCc1nc2ccc(Cl)cn2c1C(=O)NCc1ccc2c(c1)CCN(Cc1ccc(OC)cc1)C2 | < 0.035 µM | 2 µg/mL (≈ 4.09 µM) |  |  |  |  |  |  | 
CCc1nc2ccc(Cl)cn2c1C(=O)NCc1ccc2c(c1)CCN(Cc1ccc(F)cc1)C2 | < 0.035 µM | > 64 µg/mL | 60% |  |  |  |  |  | 
O=c1nc(N2CCN(CC3CCCCC3)CC2)sc2c([N+](=O)[O-])cc(C(F)(F)F)cc12 [MACOZINONE] | < 0.035 µM | 31 µg/mL (≈ 67.9 µM) | 41% | 1130 µg/mL (≈ 2480 µM) | 1600 ng·h/mL |  |  |  | 
CCc1nc2cc(Cl)ccn2c1C(=O)NCc1ccc2c(c1)CCN(CCc1ccc(C(F)(F)F)cn1)C2 | < 0.035 µM | 25 µg/mL (≈ 46.1 µM) |  |  |  |  |  |  | 
CCc1nc2ccc(Cl)cn2c1C(=O)NCc1ccc2c(c1)CCN(Cc1ccc(C(F)(F)F)nc1)C2 | 0.097 µM (≈ 0.0512 µg/mL) | 7 µg/mL (≈ 13.3 µM) |  |  |  |  |  |  | 
CCc1nc2cc(Cl)ccn2c1C(=O)NCc1ccc2c(c1)CCN(Cc1cc(F)cc(F)c1)C2 | < 0.035 µM | 48 µg/mL (≈ 97 µM) | 48% |  | 24100 ng·h/mL | Non-Toxic | 0.667 h | 9.06 h | 5380 ng/mL
CCc1nc2cc(Cl)ccn2c1C(=O)NCc1ccc2c(c1)CCN(Cc1ccc(C)cc1)C2 | 0.27 µM (≈ 0.128 µg/mL) |  |  |  |  |  |  |  | 
CCc1nc2ccc(Cl)cn2c1C(=O)NCc1ccc2c(c1)CCN(Cc1ccc(C(F)(F)F)cc1)C2 | 0.13 µM (≈ 0.0685 µg/mL) | > 64 µg/mL | 50% |  | 7800 ng·h/mL | Non-Toxic | 0.25 h | 4.98 h | 3000 ng/mL
CCc1nc2cc(Cl)ccn2c1C(=O)NCc1ccc2c(c1)CCN(Cc1ccc(F)cc1)C2 | 0.19 µM (≈ 0.0906 µg/mL) |  |  |  |  |  |  |  | 
CO[C@H]1/C=C/O[C@@]2(C)Oc3c(C)c(O)c4c(O)c(c(/C=N/N5CCN(C)CC5)c(O)c4c3C2=O)NC(=O)/C(C)=C\C=C\[C@H](C)[C@H](O)[C@@H](C)[C@@H](O)[C@@H](C)[C@H](OC(C)=O)[C@@H]1C [RIFAMPIN] | 0.12 µM (≈ 0.0988 µg/mL) |  |  |  |  |  |  |  | 
NNC(=O)c1ccncc1 [ISONIAZID] | 0.27 µM (≈ 0.037 µg/mL) |  |  |  |  |  |  |  | 
CCc1nc2ccc(Cl)cn2c1C(=O)NCc1ccc2c(c1)CN(Cc1ccc(OC(F)(F)F)cc1)C2 | 0.051 µM (≈ 0.027 µg/mL) | > 64 µg/mL | 50% |  | 3600 ng·h/mL | Non-Toxic | 0.417 h | 5.13 h | 1310 ng/mL
CCc1nc2cc(Cl)ccn2c1C(=O)NCc1ccc2c(c1)CCN(CCc1ccc(C(F)(F)F)nc1)C2 | 0.19 µM (≈ 0.103 µg/mL) |  |  |  |  |  |  |  | 
CCc1nc2ccc(Cl)cn2c1C(=O)NCc1ccc2c(c1)CCN(CCc1ccc(C(F)(F)F)nc1)C2 | 0.047 µM (≈ 0.0255 µg/mL) | > 64 µg/mL | 44% |  | 1480 ng·h/mL | Non-Toxic | 0.25 h | 1.79 h | 1630 ng/mL
CCc1nc2ccc(Cl)cn2c1C(=O)NCc1ccc(N2CCC(c3ccc(OC(F)(F)F)cc3)CC2)cc1 [TELACEBEC] | < 0.035 µM | > 64 µg/mL | 50% | 79 µg/mL (≈ 142 µM) | 46600 ng·h/mL |  | 2.67 h | 18.7 h | 3780 ng/mL
CCc1nc2ccc(Cl)cn2c1C(=O)NCc1ccc2c(c1)CN(C(C)c1ccc(OC(F)(F)F)cc1)C2 (stereo not given) | < 0.035 µM | > 64 µg/mL | 50% |  | 7610 ng·h/mL | Non-Toxic | 0.333 h | 9.08 h | 3990 ng/mL
CCc1nc2cc(Cl)ccn2c1C(=O)NCc1ccc2c(c1)CCN(Cc1ccc([N+](=O)[O-])o1)C2 | < 0.035 µM | > 64 µg/mL | 71% |  |  |  |  |  | 
CCc1nc2ccc(Cl)cn2c1C(=O)NCc1ccc2c(c1)CCN(Cc1ccc(Br)cc1)C2 | < 0.035 µM | 30 µg/mL (≈ 55.8 µM) |  |  |  |  |  |  | 
CCc1nc2ccc(Cl)cn2c1C(=O)NCc1ccc2c(c1)CCN(Cc1ccc(C(C)(C)C)cc1)C2 | < 0.035 µM | 37 µg/mL (≈ 71.8 µM) | 31% |  | 4210 ng·h/mL | Non-Toxic | 0.5 h | 9.35 h | 1080 ng/mL
CCc1nc2ccc(Cl)cn2c1C(=O)NCc1ccc2c(c1)CCN(Cc1cc(F)cc(F)c1)C2 | < 0.035 µM | 14 µg/mL (≈ 28.3 µM) |  |  |  |  |  |  | 
CCc1nc2ccc(Cl)cn2c1C(=O)NCc1ccc2c(c1)CCN(Cc1ccc([N+](=O)[O-])o1)C2 | 0.25 µM (≈ 0.123 µg/mL) |  |  |  |  |  |  |  | 
CCc1nc2cc(Cl)ccn2c1C(=O)NCc1ccc2c(c1)CCN(Cc1ccc(C(C)(C)C)cc1)C2 | 0.12 µM (≈ 0.0618 µg/mL) | 14 µg/mL (≈ 27.2 µM) |  |  |  |  |  |  | 
CCc1nc2ccc(Cl)cn2c1C(=O)NCc1ccc2c(c1)CCN(CCc1ccc(C(F)(F)F)cn1)C2 | < 0.035 µM | 48 µg/mL (≈ 88.6 µM) | 13% | 2100 µg/mL (≈ 3870 µM) | 54900 ng·h/mL | Non-Toxic | 0.25 h | 5.39 h | 22100 ng/mL
CCc1nc2cc(Cl)ccn2c1C(=O)NCc1ccc2c(c1)CCN(Cc1ccc(C(F)(F)F)cc1)C2 | 0.91 µM (≈ 0.48 µg/mL) |  |  |  |  |  |  |  | 
CCc1nc2ccc(Cl)cn2c1C(=O)NCc1ccc2c(c1)CCN(Cc1ccc(C(F)(F)F)cn1)C2 | 0.053 µM (≈ 0.028 µg/mL) | > 64 µg/mL | 25% |  | 25600 ng·h/mL | Non-Toxic | 0.583 h | 3.2 h | 8060 ng/mL
CCc1nc2cc(Cl)ccn2c1C(=O)NCc1ccc2c(c1)CCN(Cc1ccc(OC)cc1)C2 | < 0.035 µM | 32 µg/mL (≈ 65.4 µM) | 64% |  |  |  |  |  | 
